Source: paper PMC10269561, “Absence of Clinically Meaningful Drug-Drug Interactions with Rezafungin: Outcome of Investigations” (Microbiology Spectrum, 2023)

Conditions: for AUC0–t, geometric LSM value, + rezafungin / AUC0–∞, geometric LSM value, + rezafungin / Cmax, geometric LSM value, + rezafungin / AUC0–t, geometric LSM value, alone / AUC0–∞, geometric LSM value, alone / Cmax, geometric LSM value, alone: Study 1, healthy subjects, efavirenz 50 mg, plasma, LC-MS/MS, NCA; for AUC0–t, geometric LSM value, + rezafungin / AUC0–∞, geometric LSM value, + rezafungin / Cmax, geometric LSM value, + rezafungin: oral metformin 500 mg, pitavastatin 2 mg (day 10) or caffeine 100 mg, midazolam 2 mg, digoxin 0.25 mg (day 15) with i.v. rezafungin 400 mg; for AUC0–t, geometric LSM value, alone / AUC0–∞, geometric LSM value, alone / Cmax, geometric LSM value, alone: oral repaglinide 1 mg, metformin 500 mg, pitavastatin 2 mg, caffeine 100 mg, midazolam 2 mg or digoxin 0.25 mg without rezafungin; for Change in exposure of the oral probe drug on coadministration of i.v. rezafungin vs dosing alone / Observation, Cmax (change with rezafungin relative to drug alone) / Observation, AUC (change with rezafungin relative to drug alone) / AUC0–t, geometric mean ratio (drug + rezafungin / drug alone) / AUC0–∞, geometric mean ratio (drug + rezafungin / drug alone) / Cmax, geometric mean ratio (drug + rezafungin / drug alone): Study 1; for Change in exposure of the oral probe drug on coadministration of i.v. rezafungin vs dosing alone: 90% CIs of GMRs of Cmax, AUC0–t, AUC0–∞ within 80 to […]; for Observation, Cmax (change with rezafungin relative to drug alone) / Observation, AUC (change with rezafungin relative to drug alone): class symbol; for Observation, AUC (change with rezafungin relative to drug alone): AUC0–t and AUC0–∞ unless otherwise noted; for AUC0–t, geometric mean ratio (drug + rezafungin / drug alone) / AUC0–∞, geometric mean ratio (drug + rezafungin / drug alone) / Cmax, geometric mean ratio (drug + rezafungin / drug alone): rezafungin 400 mg i.v. (day 10 or 15), geometric LSM ratio x 100, ANOVA
Experimental: Both were phase 1, single-center, open-label, crossover inpatient studies that were conducted in the United States in healthy adults (study 1, aged 26 to 55 years; study 2, aged 21 to 59 years). The studies were compliant with the International Council for Harmonisation of Technical Requirements for Pharmaceuticals for Human Use E6 guideline for good clinical practice ([54]) and the Declaration of Helsinki. The study protocols were approved by the institutional review board associated with the study site, and all subjects provided written informed consent.
After screening, subjects were admitted to the clinical research unit (CRU) prior to the first dose of rezafungin (from day −22) and were discharged from the CRU on day 22. Nine oral substrate drugs were administered as part of a cocktail containing two or more drugs once before and once after receiving rezafungin on a schedule designed to allow the washout of the drugs in the cocktail between doses and limit interactions with other drugs (Fig. 4A). […] A loading dose of rezafungin for injection (600 mg) was administered over 1 h on day 1, followed by two once-weekly 400-mg doses over 1 h on days 10 and 15. Due to a short delay in the availability of the investigation study drug, the second once-weekly dose of rezafungin and the second set of oral substrate drugs were administered on day 10 instead of day 8, although the time between doses remained sufficient for all originally planned PK samplings through 96 h postdose and for the adequate washout of the substrate drugs. The total duration of treatment was up to 89 days, including 45 days of screening and 44 days of treatment in the CRU.
In study 1, predose PK blood samples were collected on each dosing day ≤60 min prior to the administration of the substrate drugs with or without rezafungin. Multiple blood samples were collected relative to each dose, with collection times ranging from 15 min to 168 h postdose, depending on the PK profile of each probe substrate drug (Table S5). For study 2, multiple blood samples were collected, and the timing of collection varied according to the PK profile of each coadministered drug from predose to 96 h postdose (Table S6). PK blood samples were collected for rezafungin at sample times ranging from predose to 168 h postdose.
For both studies, validated liquid chromatography-tandem mass spectrometry (LC-MS/MS) methods were used for PK assessments to analyze the concentrations of rezafungin and coadministered drugs. All plasma concentrations and actual blood sampling times were subjected to noncompartmental PK analysis. PK parameter calculations were performed using noncompartmental analysis (NCA) (Phoenix WinNonlin version 8.0 or higher). The PK parameters analyzed included Cmax; the time to reach the maximum observed plasma concentration (Tmax); AUC0–t (using the log-linear trapezoidal rule, where t was the last time point with a measurable concentration); AUC0–∞ (calculated as AUC0–t + Clast/λz); the AUC from 0 to 168 h (AUC0–168); the percentage of AUC0–∞ extrapolated (AUC%Extrap); the terminal elimination rate constant, determined by linear regression of the terminal linear segment of the log concentration-versus-time curve (λz); and the elimination half-life (t1/2), calculated as ln(2)/λz.
The primary analysis of the drug interaction effect on substrate drugs following rezafungin administration was assessed by the ratio of the geometric least-squares (LS) mean of each substrate drug administered with rezafungin to that without rezafungin. […] PK parameters were statistically analyzed using an analysis of variance (ANOVA) model. […] However, noncompliance with these no-effect boundaries was not considered evidence of a significant DDI. Statistical analyses were performed using SAS (version 9.4) and the mixed procedure. Adverse events were descriptively summarized.

Compound	AUC0–t, geometric LSM value, + rezafungin	AUC0–∞, geometric LSM value, + rezafungin	Cmax, geometric LSM value, + rezafungin	AUC0–t, geometric LSM value, alone	AUC0–∞, geometric LSM value, alone	Cmax, geometric LSM value, alone	Change in exposure of the oral probe drug on coadministration of i.v. rezafungin vs dosing alone	Observation, Cmax (change with rezafungin relative to drug alone)	Observation, AUC (change with rezafungin relative to drug alone)	AUC0–t, geometric mean ratio (drug + rezafungin / drug alone) [%]	AUC0–∞, geometric mean ratio (drug + rezafungin / drug alone) [%]	Cmax, geometric mean ratio (drug + rezafungin / drug alone) [%]
CN(C)C(=N)N=C(N)N [Metformin]	7,257.55 ng · h/mL	7,373.31 ng · h/mL	1,115.98 ng/mL	7,333.63 ng · h/mL	7,446.67 ng · h/mL	1,074.27 ng/mL	did not result in statistically significant changes	↔ (no change (the ratio of the PK parameter value varied by up to ~10%, and the 90% CI was within 80 to 125%))	↔ (no change (the ratio of the PK parameter value varied by up to ~10%, and the 90% CI was within 80 to 125%))	98.96	99.02	103.88
Cc1ncc2n1-c1ccc(Cl)cc1C(c1ccccc1F)=NC2 [Midazolam]	21.62 ng·h/mL	23.67 ng·h/mL	8.70 ng/mL	21.39 ng·h/mL	23.25 ng·h/mL	9.00 ng/mL	did not result in statistically significant changes	↔ (no change (the ratio of the PK parameter value varied by up to ~10%, and the 90% CI was within 80 to 125%))	↔ (no change (the ratio of the PK parameter value varied by up to ~10%, and the 90% CI was within 80 to 125%))	101.06	101.78	96.73
O=C(O)C[C@H](O)C[C@H](O)/C=C/c1c(C2CC2)nc2ccccc2c1-c1ccc(F)cc1 [Pitavastatin]	81.54 ng·h/mL	90.87 ng·h/mL	35.72 ng/mL	77.44 ng·h/mL	85.78 ng·h/mL	36.23 ng/mL	did not result in statistically significant changes	↔ (no change (the ratio of the PK parameter value varied by up to ~10%, and the 90% CI was within 80 to 125%))	↔ (no change (the ratio of the PK parameter value varied by up to ~10%, and the 90% CI was within 80 to 125%))	105.30	105.93	98.59
O=C1Nc2ccc(Cl)cc2[C@@](C#CC2CC2)(C(F)(F)F)O1 [Efavirenz]	7,698.46 ng · h/mL	16,156.14 ng · h/mL	300.17 ng/mL	7,557.26 ng · h/mL	14,368.15 ng · h/mL	299.30 ng/mL	did not result in statistically significant changes	↔ (no change (the ratio of the PK parameter value varied by up to ~10%, and the 90% CI was within 80 to 125%))	↔ (no change (the ratio of the PK parameter value varied by up to ~10%, and the 90% CI was within 80 to 125%))	101.87	112.44	100.29
